From US10245299B2, “Autoassembling peptides for the treatment of pulmonary bulla” (3-D MATRIX, LTD., priority 2014, dated 2019) come the findings set out here.

Series [1] concerns pulmonary bulla. Description: Filling of pulmonary bulla cavity through connecting bronchioles before collapse. The following applies: 1.0% RADA16 with 0.00585% indigo carmine. As to the method: A method for pulmonary bullae treatment using peptide hydrogel systems distinct from the method discussed in Example 19 was tested. Here, the pulmonary bullae are generally filled prior to collapse.
The pulmonary bulla cavity was filled with 1.0% RADA16 through the connecting bronchioles using an endotracheal tube inserted through the primary bronchus and into the lung. The bulla was then collapsed to remove the pocket of trapped air. 1.0% RADA16 mixed with 0.00585% indigo carmine was used here for visualization of the hydrogel spreading into the bullae cavity.

A short description of series [2]: Rheological properties (storage moduli) of 1% peptides before and after DMEM treatment for 2 minutes. Type of series: physicochemical. As to conditions: peptides 1%, compared between peptides. As to the method:
The effects of Dulbecco's modified Eagle's medium (DMEM) (pH 7.4) on the rheological properties of IEIK13, KLD12, and PuraMatrix® were evaluated on a rheometer (AR500, TA Instruments) with 40 mm plates. DMEM is generally a cell culture medium that contains 6.4 g/L of NaCl, 3.4 g/L NaHCO3 (sodium bicarbonate), minor amounts of other salts, various amino acids, and 4.5 g/L of glucose. The pH level of DMEM is generally 7.2±0.2 and the osmolality is 335±30 mOsm/Kg H2O; both measurements are close to human physiological fluids such as blood.
Peptide solutions (1%) were kept at 4° C. for at least 48 hours before testing. To perform the experiment, 1 mL of peptide solution was gently pipetted and placed on the plate of the rheometer. 2 mL of DMEM solution was gently added around the peptide solution. The peptide solution was treated with DMEM for two minutes, then the media was removed, and the plates were placed at a measuring geometry gap at around 450 μm. Measurements were performed at 37° C. after 2 min of relaxation time. Frequency tests were performed from 1 rad/s to 100 rad/s at 1 Pa of oscillation stress.
The rheological properties of the peptides (1%) were compared before and after DMEM treatment for 2 minutes, as shown in FIG. 1A. […]

Regarding “Arg-Ala-Asp-Ala-Arg-Ala-Asp-Ala-Arg-Ala-Asp-Ala-Arg-Ala-Asp-Ala [PuraMatrix®]”, the “filling of bullae cavity through the connecting bronchioles” value in series [1] is “completely fill the bullae cavity”.
As to “Ile-Glu-Ile-Lys-Ile-Glu-Ile-Lys-Ile-Glu-Ile-Lys-Ile [IEIK13]”, the “fold increase of storage modulus after DMEM treatment” value in series [2] was “lower-fold increase of storage modulus than weaker peptide solutions”.
